Laboratory results taken from PubChem BioAssay (NCI).
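Where inhibition never reached the appropriate level, the endpoint shown equals the highest concentration tested. Otherwise, values were interpolated linearly from a five-concentration, 48-hour dose response in 96-well plates. GI50 is the concentration that inhibits growth by half. At the TGI there is no net growth.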

Experiments:
Test in all cases: NCI tumour cell line growth inhibition, 48 h
[1] = test system: KM20L2 colon
[2] = test system: XF 498 CNS
[3] = test system: P388 leukemia
[4] = test system: SN12K1 renal
[5] = test system: SNB-78 CNS
[6] = test system: DMS 114 small cell lung
[7] = test system: P388/ADR leukemia
[8] = test system: RXF-631 renal
[9] = test system: LXFL 529 NSCLC
[10] = test system: DMS 273 small cell lung

| SMILES | TGI [1] | GI50 [2] | TGI [2] | TGI [3] | TGI [4] | TGI [5] | TGI [6] | TGI [7] | TGI [8] | TGI [9] | TGI [10] |
| --- | --- | --- | --- | --- | --- | --- | --- | --- | --- | --- | --- |
| COc1cccc(/C=N/[N-]C(N)=O)c1[O-].[Ni+2].[OH3+] | 2.15 µM | 0.152 µM | 0.331 µM | – | – | – | – | – | – | – | – |
| COc1cc(C2c3cc4c(cc3[C@@H](Nc3ccc(Oc5ccccc5)cc3)C3COC(=O)[C@H]23)OCO4)cc(OC)c1O (stereo partly specified) | > 24.3 µM | – | > 59.8 µM | 1.88 µM | > 100 µM | > 100 µM | > 22.7 µM | 3.49 µM | – | – | – |
| Cn1c2[n+](c3nc(N)[nH]c(=O)c31)C1OC(C2)C(O)C1O (stereo unspecified) | > 100 µM | – | > 100 µM | – | – | > 100 µM | > 100 µM | – | > 100 µM | > 100 µM | > 100 µM |
| CC(=O)Nc1ccc(C(=O)NN2C(=O)C(Cl)C2c2cccc([N+](=O)[O-])c2)cc1 (stereo unspecified) | – | – | – | – | – | – | – | – | – | > 100 µM | – |
| CCOCC(=O)N(C)c1cccc2c3c(n(C)c12)CCCCC3 | > 100 µM | – | > 100 µM | > 100 µM | > 100 µM | > 100 µM | > 100 µM | > 100 µM | – | – | > 31.6 µM |
